Results taken from ChEMBL document CHEMBL1201862, “PubChem BioAssay data set” (2004).
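How tested: cells in 96-well plates exposed to compound for 48 hours at five concentrations. GI50: concentration for 50% inhibition of growth.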 Calls of active or inactive are those of the source. Rule as the data show it: active = GI50 up to about 1.1 µM and inactive = higher.

Legend:
Assay in all cases: NCI tumour cell line growth inhibition, 48 h
RPMI-8226 = system: RPMI-8226
HCT-15 = system: HCT-15
SF-295 = system: SF-295
NCI/ADR-RES = system: NCI/ADR-RES
SK-MEL-2 = system: SK-MEL-2
HOP-92 = system: HOP-92
Hs-578T = system: Hs-578T
SK-OV-3 = system: SK-OV-3
A549 = system: A549
HCC 2998 = system: HCC 2998
LOX IMVI = system: LOX IMVI
OVCAR-5 = system: OVCAR-5
SNB-75 = system: SNB-75
BT-549 = system: BT-549
DU-145 = system: DU-145
ACHN = system: ACHN
SW-620 = system: SW-620
CCRF-CEM = system: CCRF-CEM
MDA-MB-435 = system: MDA-MB-435
UACC-62 = system: UACC-62

SMILES | GI50 (RPMI-8226) | GI50 (HCT-15) [µM] | GI50 (SF-295) | GI50 (NCI/ADR-RES) | GI50 (SK-MEL-2) | GI50 (HOP-92) | GI50 (Hs-578T) | GI50 (SK-OV-3) | GI50 (A549) | GI50 (HCC 2998) | GI50 (LOX IMVI) | GI50 (OVCAR-5) | GI50 (SNB-75) | GI50 (BT-549) | GI50 (DU-145) | GI50 (ACHN) | GI50 (SW-620) | GI50 (CCRF-CEM) | GI50 (MDA-MB-435) | GI50 (UACC-62)
O=C(O)CCCc1ccc(N(CCCl)CCCl)cc1 [CHLORAMBUCIL] | 76 µM (inactive) | 92.7 | 39.2 µM (inactive) | 56.9 µM (inactive) | 155 µM (inactive) | 63.7 µM (inactive) | 189 µM (inactive) | 110 µM (inactive) | 61.7 µM (inactive) | 103 µM (inactive) | 40.3 µM (inactive) | 97.1 µM (inactive) | 54 µM (inactive) | 112 µM (inactive) | 61.4 µM (inactive) | 14.4 µM (inactive) | 87.9 µM (inactive) | 6.31 µM (inactive) | 126 µM (inactive) | 20 µM (inactive)
COc1cc2cc3c4cc(OC)c(OC)cc4cc[n+]3c(C)c2cc1OC [CORALYNE] | > 100 µM (inactive) | 48.2 | 28.6 µM (inactive) | > 100 µM (inactive) | > 100 µM (inactive) | > 100 µM (inactive) | 24.9 µM (inactive) | > 100 µM (inactive) | > 100 µM (inactive) | 42.7 µM (inactive) | > 100 µM (inactive) | > 100 µM (inactive) | 10.2 µM (inactive) | 10.8 µM (inactive) | > 100 µM (inactive) | > 100 µM (inactive) | 58.7 µM (inactive) | > 100 µM (inactive) | > 100 µM (inactive) | 23.4 µM (inactive)
